Read-outs that look alike come from different tables or passages of the source.
Key:
VEGFR2 = VEGFR2 (Homo sapiens, UniProt P35968); assay: Kinase inhibition activity test, isotope labeling (γ-33P-ATP): VEGFR2; format: biochemical; settings: for IC50: ATP 90 μM, read-out: VEGFR2 IC50 value (inhibitory activity value); for inhibition at 10 µM / Activity inhibition rate VEGFR2 (h): test compound at a concentration of 10 μM; for inhibition at 10 µM: read-out: Activity inhibition rate VEGFR2 (h)
Experimental: (§1) The purpose of this experiment was to test the inhibitory activity of the compound of the invention for in vitro kinase with the isotope labeling method (the γ phosphate group on ATP was labeled). In this experiment, the in vitro activity inhibition of such kinases as FLT3, VEGFR2, FLT1, FLT4, RET, c-RAF, B-RAF, c-KIT, PDGFα, PDGFβ, FGFR2, FGFR1, EphA2, EphB2, SRC, ABL, ALK and Met was tested respectively. Staurosporine was reference molecule (or referred to as positive control). The kinase inhibition activity of the test compound was expressed by half-inhibitory concentration (IC50) or the kinase activity inhibition rate of the test compound at a concentration of 10 μM. The IC50 value could be obtained by calculating the kinase activity inhibition rate of the test compound at different concentrations.
(§2) 20 mM 3-(N-morpholinyl)propanesulfonic acid (MOPS); 1 mM ethylenediaminetetraacetic acid (EDTA), 0.01% Brij 35 (Brij-35), 5% glycerol, 0.1% mercaptoethanol, 1 mg/mL bovine serum albumin (BSA), 10 mM manganous dichloride solution (MnCl2), 0.1 mg/mL glutamic acid/tyrosine (4:1) polypeptide (poly(Glu, Tyr)4:1), 50 μM EAIYAAPFAKKK (substrate of FLT3), 0.33 mg/mL myelin basic protein (substrate of VEGFR2), 250 μM KKKSPGEYVNIEFG (substrate of FLT1(h)), 500 μM GGEEEEYFELVKKKK (substrate of FLT4(h)), 250 μM KKKSPGEYVNIEFG (substrate of RET), 0.66 mg/mL myelin basic protein (substrate of C-RAF), 250 μM GGMEDIYFEFMGGKKK (substrate of c-Kit), 250 μM GGMEDIYFEFMGGKKK (substrate of PDGFα), 250 μM KKKSPGEYVNIEFG (substrate of FGFR1), […] GGEEEEYFELVKKKK (substrate of SRC), 50 μM EAIYAAPFAKKK (substrate of ABL), 250 μM KKKSPGEYVNIEFG (substrate of ALK), 250 μM KKKSPGEYVNIEFG (substrate of Met(h)), 10 mM magnesium acetate and γ-^33 P-ATP solution, stop buffer (3% phosphate buffer), washing buffer (75 mM phosphate solution), methanol, Filtermat A membrane, FLT3, VEGFR2, FLT3, VEGFR2, FLT1, FLT4, RET, c-RAF, B-RAF, c-KIT, PDGFRα, PDGFRβ, FGFR2, FGFR1, EphA2, EphB2, SRC, ABL, ALK, Met and other kinases, and the test compounds.
(§3) Buffers (8 mM MOPS with pH value of 7.0, 0.2 mM EDTA and 10 mM MnCl2), (5-10 mU) kinases to be tested (FLT3, VEGFR2, FLT1, FLT4, RET, c-RAF, B-RAF, c-KIT, PDGFRα, PDGFRβ, FGFR2, FGFR1, EphA2, EphB2, SRC, ABL, ALK and Met), substrates of kinases to be tested (refer to experimental materials), 10 mM magnesium acetate and γ-^33 P-ATP solution, and test compounds at different concentrations were added to a reaction tube orderly. […] Reaction was terminated with 5 μL 3% phosphate buffer finally, and 10 μL reaction solution was titrated to the Filtermat A membrane; solution was washed for 3 times with 75 mM phosphate solution with each time lasting 5 minutes, and then washed once with methanol. Finally, the Filtermat A membrane was dried, and scintillation counting was performed on the membrane, with scintillation count reflecting the phosphorylation degree of the substrates, so that the activity inhibition of kinase could be characterized.

FGFR2 = FGFR2 (Homo sapiens, UniProt P21802); assay: Kinase inhibition activity test, isotope labeling: FGFR2; format: biochemical; settings: for inhibition at 10 µM / Activity inhibition rate FGFR2 (h): test compound at a concentration of 10 μM; for inhibition at 10 µM: read-out: Activity inhibition rate FGFR2 (h); for IC50: ATP 90 μM, read-out: FGFR2 IC50 value (inhibitory activity value)
Chain of FGFR2 (P21802 22-821): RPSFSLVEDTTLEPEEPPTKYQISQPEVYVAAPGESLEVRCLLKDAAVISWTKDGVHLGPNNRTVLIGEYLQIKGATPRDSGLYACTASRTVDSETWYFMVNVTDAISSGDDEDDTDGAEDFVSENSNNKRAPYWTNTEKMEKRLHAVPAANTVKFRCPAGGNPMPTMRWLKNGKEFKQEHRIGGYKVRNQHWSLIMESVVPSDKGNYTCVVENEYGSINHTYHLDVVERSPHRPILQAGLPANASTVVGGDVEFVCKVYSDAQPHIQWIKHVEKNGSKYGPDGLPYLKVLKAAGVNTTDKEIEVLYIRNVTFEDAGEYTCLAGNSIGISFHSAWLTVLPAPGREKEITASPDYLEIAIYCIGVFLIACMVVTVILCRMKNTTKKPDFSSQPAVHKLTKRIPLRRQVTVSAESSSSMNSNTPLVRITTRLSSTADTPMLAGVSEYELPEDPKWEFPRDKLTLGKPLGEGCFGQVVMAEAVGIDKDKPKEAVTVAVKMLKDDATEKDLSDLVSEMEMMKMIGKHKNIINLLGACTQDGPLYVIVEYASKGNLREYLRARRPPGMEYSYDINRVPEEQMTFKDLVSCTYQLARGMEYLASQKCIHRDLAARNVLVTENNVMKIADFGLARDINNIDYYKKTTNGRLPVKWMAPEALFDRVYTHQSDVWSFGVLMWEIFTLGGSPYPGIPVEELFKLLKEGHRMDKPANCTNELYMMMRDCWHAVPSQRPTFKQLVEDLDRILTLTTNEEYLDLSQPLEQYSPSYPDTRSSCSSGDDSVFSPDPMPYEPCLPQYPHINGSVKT
Experimental: as §1, §2, §3

[1] = tested on: human malignant melanoma cell line A375; assay: In vitro tumor cell proliferation inhibition (MTT): A375; format: cell-based
Excerpt: (§4) The purpose of the experiment was to test the inhibition activity of the compounds of the invention for in vitro human tumor cell proliferation by the methyl thiazolyl tetrazolium (MTT) colorimetry.
(§5) Main reagents: RPMI-1640, fetal bovine serum, pancreatin, etc. were purchased from Gibco BRL Company (Invitrogen Corporation, USA) and IMDM medium that was purchased from American Type Culture Collection (ATCC). Methyl thiazolyl tetrazolium (MTT) and dimethyl sulfoxide (DMSO) were products from Sigma Company (USA). Pyrazolopyrimidine derivatives were composed by the inventor. During in vitro experiment, 100% DMSO was prepared into 10 mM storage solution, the solution was stored in a refrigerator at −20° C. for future use, and was diluted to the required concentration with complete culture solution before use.
(§6) Cell line and culture: Human leukemia cell line MV4-11, Jurkat, K562, human thyrophyma cell line TT, human gastric carcinoma cell line MKN-45, human malignant melanoma cell lines A375 and A875, human pancreatic carcinoma cell line panc-1, human cervical carcinoma cell line HELA, human colorectal carcinoma cell line HCT116, etc. were purchased from American type culture collection and were preserved by this laboratory. All leukemia cell lines (except MV4-11), gastric carcinoma cell lines and thyrophyma cell lines were cultured in RPMI-1640 complete medium containing 10% fetal bovine serum, 100 U/mL penicillin and 100 μg/mL streptomycin at 37° C. in 5% CO2. The remaining cell lines were cultured in DMEM complete medium containing 10% fetal bovine serum (containing 20% MV4-11 cell), 100 U/mL penicillin and 100 µg/mL streptomycin at 37° C. in 5% CO2.
(§7) Cell suspension with cell concentration of 1-2×10^4/mL was adjusted with the complete cell medium and inoculated in a 96-well plate, with each well filled with 200 μl cell suspension that was cultured overnight. On the next day, supernatant was sucked and abandoned (supernatant was sucked upon centrifugation of suspension cells), and then cells were processed with test compounds at gradient concentrations respectively. Meanwhile, a negative control group free from drug and a solvent control group with equal volume were set, and the DMSO concentration was 0.1%. Each dose group was provided with three wells and cultured at 37° C. in 5% CO2. After 72 hours, 20 μl 5 mg/mL MTT reagent was added to each well, and cultured for another 2 to 4 hours, the supernatant was abandoned; 150 μL DMSO was added to each well again, vibrated and mixed evenly for 15 minutes; the absorbance (A) values (proportional to living cell amount) were determined with a microplate reader (λ=570 nm) and averaged. […] Experiment was repeated for 3 times at least. Experimental data were expressed with means, data statistics were tested by t, and P<0.05 means that difference has a statistical significance. The cell proliferation inhibition effects of all compounds as follows are expressed by IC50 or inhibition rate.

[2] = tested on: human pancreatic carcinoma cell line panc-1; assay: In vitro tumor cell proliferation inhibition (MTT): panc-1; format: cell-based
Excerpt: as §4, §5, §6, §7

[3] = tested on: human colorectal carcinoma cell line HCT116; assay: In vitro tumor cell proliferation inhibition (MTT): HCT116; format: cell-based
Excerpt: as §4, §5, §6, §7

[4] = tested on: human thyrophyma cell line TT; assay: In vitro tumor cell proliferation inhibition (MTT): TT; format: cell-based
Excerpt: as §4, §5, §6, §7

[5] = Homo sapiens, HCT-116, 72 hours
[6] = 72 hours, read-out: Proliferation inhibition activity (IC50) HCT 116

Chain of VEGFR2 (P35968 20-1356): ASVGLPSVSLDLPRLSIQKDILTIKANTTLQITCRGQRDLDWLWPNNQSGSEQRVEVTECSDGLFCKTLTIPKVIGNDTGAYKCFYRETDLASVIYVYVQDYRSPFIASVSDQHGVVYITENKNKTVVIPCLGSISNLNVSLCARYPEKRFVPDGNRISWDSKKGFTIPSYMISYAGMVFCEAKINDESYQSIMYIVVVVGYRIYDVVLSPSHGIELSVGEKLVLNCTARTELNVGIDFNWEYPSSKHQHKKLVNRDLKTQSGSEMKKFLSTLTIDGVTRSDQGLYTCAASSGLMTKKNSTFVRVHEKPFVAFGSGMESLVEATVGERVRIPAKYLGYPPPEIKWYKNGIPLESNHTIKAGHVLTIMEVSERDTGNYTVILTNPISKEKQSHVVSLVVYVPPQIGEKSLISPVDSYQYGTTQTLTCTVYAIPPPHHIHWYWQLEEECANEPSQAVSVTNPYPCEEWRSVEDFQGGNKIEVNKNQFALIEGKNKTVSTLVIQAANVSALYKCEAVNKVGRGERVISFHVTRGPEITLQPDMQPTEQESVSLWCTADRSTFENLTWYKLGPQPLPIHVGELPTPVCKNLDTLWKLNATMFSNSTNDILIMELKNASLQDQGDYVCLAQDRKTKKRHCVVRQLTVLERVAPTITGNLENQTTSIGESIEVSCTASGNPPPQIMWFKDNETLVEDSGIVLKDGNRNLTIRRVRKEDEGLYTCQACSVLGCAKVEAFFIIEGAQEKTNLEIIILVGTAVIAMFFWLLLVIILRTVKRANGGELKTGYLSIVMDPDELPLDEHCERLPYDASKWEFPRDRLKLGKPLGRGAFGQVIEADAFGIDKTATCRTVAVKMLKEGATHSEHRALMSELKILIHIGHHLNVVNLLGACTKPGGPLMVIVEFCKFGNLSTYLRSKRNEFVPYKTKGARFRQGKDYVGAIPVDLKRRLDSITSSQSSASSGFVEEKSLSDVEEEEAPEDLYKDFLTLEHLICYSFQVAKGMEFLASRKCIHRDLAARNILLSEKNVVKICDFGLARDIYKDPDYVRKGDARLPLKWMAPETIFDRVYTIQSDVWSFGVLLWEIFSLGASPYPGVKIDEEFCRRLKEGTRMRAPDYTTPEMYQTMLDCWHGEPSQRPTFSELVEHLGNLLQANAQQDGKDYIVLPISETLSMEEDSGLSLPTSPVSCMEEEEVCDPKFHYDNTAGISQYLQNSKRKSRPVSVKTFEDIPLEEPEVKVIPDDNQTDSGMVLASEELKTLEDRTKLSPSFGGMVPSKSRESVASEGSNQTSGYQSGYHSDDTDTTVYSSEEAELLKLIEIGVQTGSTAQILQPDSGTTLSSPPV

| IC50 (VEGFR2) [µM] | inhibition at 10 µM (VEGFR2) [%] | inhibition at 10 µM (FGFR2) [%] | IC50 ([1]; Homo sapiens, A-375, 72 hours) [µM] | IC50 ([2]; Homo sapiens, PANC-1, 72 hours) [µM] | IC50 [3, 5] [µM] | IC50 ([4]; Homo sapiens, 72 h) [µM] | Activity inhibition rate VEGFR2 (h) (VEGFR2) [%] | IC50 (FGFR2) [µM] | Activity inhibition rate FGFR2 (h) (FGFR2) [%] | IC50 ([1]; 72 hours) [µM] | IC50 ([2]; 72 hours) [µM] | IC50 [3, 6] [µM] | IC50 ([4]; 72 hours) [µM] | Compound |
| --- | --- | --- | --- | --- | --- | --- | --- | --- | --- | --- | --- | --- | --- | --- |
| 0.03 | 100 | 22 | < 50 | < 50 | < 50 | < 50 |  |  |  |  |  |  |  | O=C(Nc1ccc(Oc2ncnc3[nH]ncc23)cc1)Nc1ccc(C(F)(F)F)cc1 [4a-1] |
| 0.012 |  |  |  |  |  |  | 100 | 1.8 | 80 | 2.12 | < 50 | < 50 | 3.42 | O=C(Nc1ccc(Oc2ncnc3[nH]ncc23)cc1)Nc1ccc(Cl)c(C(F)(F)F)c1 [4a-2] |
| 0.019 |  |  |  |  |  |  | 100 |  | 18 | < 50 | 2.31 | 4.56 | 1.63 | O=C(Nc1ccc(C(F)(F)F)cc1)Nc1ccc(Oc2ncnc3[nH]ncc23)c(F)c1 [4a-9, 1-(4-((1H-pyrazolopyrimidine-4-yl)oxy)-3-fluorophenyl)-3-(4-(trifluoromethyl)phenyl)urea] |
| 0.037 |  |  |  |  |  |  | 100 |  | 13 | < 50 | < 50 | < 50 | 3 to 10 | O=C(Nc1ccc(Oc2ncnc3[nH]ncc23)cc1)Nc1ccc(C(F)(F)F)cc1Cl [4a-13] |
| 0.014 |  |  |  |  |  |  | 100 |  | >50 | 6.94 | < 50 | 6.75 | 1.55 | CC(C)(C)c1cc(NC(=O)Nc2ccc(Oc3ncnc4[nH]ncc34)cc2)n(-c2ccccc2)n1 [4a-24] |
| 0.012 |  |  |  |  |  |  | 100 | < 10 | >50 | 3 to 10 | 3 to 10 | 3 to 10 | 1.02 | CC(C)(C)c1cc(NC(=O)Nc2ccc(Oc3ncnc4[nH]ncc34)cc2)on1 [4a-25] |
| 0.012 | 100 | > 50 | 3 to 10 | 3 to 10 | 3 to 10 | 2.12 |  |  |  |  |  |  |  | CC(C)(C)c1cc(NC(=O)Nc2ccc(Oc3ncnc4[nH]ncc34)cc2)no1 [4a-26] |
|  | 100 | > 50 | < 50 | < 50 | < 50 | 3 to 10 |  |  |  |  |  |  |  | O=C(Nc1ccc(Oc2ncnc3[nH]ncc23)cc1)Nc1cc(C(F)(F)F)on1 [4a-28] |
| 0.011 |  |  |  |  |  |  | 100 | < 10 | >50 | 3 to 10 | 3 to 10 |  | 0.943 | CC(C)(C)c1cc(NC(=O)Nc2ccc(Oc3ncnc4[nH]ncc34)c(F)c2)no1 [4a-31] |
|  | 97 | 52 |  |  |  | 9.48 |  |  |  |  |  |  |  | O=C(Nc1ccc(NC(=O)N2C=NC=C3NNC=C32)cc1)Nc1ccc(Cl)c(C(F)(F)F)c1 [4b-5, 1-(4-(1H-pyrazolopyrimidine-4-amido)phenyl)-3-(4-chloro-3-(trifluoromethyl)phenyl)urea] |
|  |  |  |  |  |  |  | 100 |  | >50 | < 50 | < 50 |  | 7.89 | O=C(Nc1ccc(Sc2ncnc3[nH]ncc23)cc1)Nc1cccc(C(F)(F)F)c1 [4c-2] |
|  |  |  |  |  |  |  | 100 |  | >50 | < 50 | < 50 | < 50 | 3 to 10 | CC(C)(C)c1cc(NC(=O)Nc2ccc(Sc3ncnc4[nH]ncc34)cc2)no1 [4c-3, 1-(4-(1H-pyrazolopyrimidine-4-sulfydryl)phenyl)-3-(5-tert-butylisoxazol-3-yl)urea] |
|  | > 90 | > 30 | < 50 | < 50 | < 50 | 9.89 |  |  |  |  |  |  |  | CC(C)n1ncc2c(Oc3ccc(NC(=O)Nc4cc(C(C)(C)C)on4)cc3)ncnc21 [5a-4, 1-(5-tert-butylisoxazol-3-yl)-3-(4-(1-isopropyl-(1H-pyrazolopyrimidine-4-yl)oxy)phenyl)urea] |

| Compound | IC50 (VEGFR2) [µM] | inhibition at 10 µM (VEGFR2) [%] | inhibition at 10 µM (FGFR2) [%] | IC50 ([1]; Homo sapiens, A-375, 72 hours) [µM] | IC50 ([2]; Homo sapiens, PANC-1, 72 hours) [µM] | IC50 [3, 5] [µM] | IC50 ([4]; Homo sapiens, 72 h) [µM] | Activity inhibition rate VEGFR2 (h) (VEGFR2) [%] | IC50 (FGFR2) [µM] | Activity inhibition rate FGFR2 (h) (FGFR2) [%] | IC50 ([1]; 72 hours) [µM] | IC50 ([2]; 72 hours) [µM] | IC50 [3, 6] [µM] | IC50 ([4]; 72 hours) [µM] |
| --- | --- | --- | --- | --- | --- | --- | --- | --- | --- | --- | --- | --- | --- | --- |
| O=C(Nc1ccc(Oc2ncnc3[nH]ncc23)cc1)Nc1cccc(C(F)(F)F)c1 [4a-6] | 0.011 | 100 | 56 | 3.45 | < 50 | < 50 | 0.312 |  | < 10 |  |  |  |  |  |
